Source: patent publication US9458172B2, “Pyridinyl and pyrimidinyl sulfoxide and sulfone derivatives” (priority 2012, dated 2016)
Read-outs that look alike come from different tables or passages of the source.

Key:
[1] = molecular target: NAMPT (Homo sapiens (Human), UniProt P43490); experiment: Biochemical Inhibition Assay (NAMPT enzymatic reaction, NMN quantified by mass spectrometry); settings: 33 nM recombinant His-tagged NAMPT, 1 μM NAM, 30 min at rt
Protocol: Assay 1: Biochemical Inhibition Assay
NAMPT protein purification. Recombinant His-tagged NAMPT was produced in E. coli cells, purified over a Ni column, and further purified over a size-exclusion column by XTAL Biostructures.
The NAMPT Enzymatic Reaction. The NAMPT enzymatic reactions were carried out in Buffer A (50 mM Hepes pH 7.5, 50 mM NaCl, 5 mM MgCl2, and 1 mM THP) in 96-well V-bottom plates. The compound titrations were performed in a separate dilution plate by serially diluting the compounds in DMSO to make a 100× stock. […] The compound and enzyme mixture was incubated for 15 min at rt, then 10 μL of 10× substrate and co-factors in Buffer A were added to the test well to make a final concentration of 1 μM NAM, […] 5-Phospho-D-ribose 1-diphosphate (PRPP), and 2.5 mM Adenosine 5′-triphosphate (ATP). The reaction was allowed to proceed for 30 min at rt, then was quenched with the addition of 11 μL of a solution of formic acid and L-Cystathionine to make a final concentration of 1% formic acid and 10 μM L-Cystathionine. Background and signal strength was determined by addition (or non-addition) of a serial dilution of NMN to a pre-quenched enzyme and cofactor mix.
Quantification of NMN. A mass spectrometry-based assay was used to measure the NAMPT reaction product, β-nicotinamide mononucleotide (NMN), and the internal control (L-Cystathionine). NMN and L-Cystathionine were detected using the services of Biocius Lifesciences with the RapidFire system. In short, the NMN and L-Cystathionine were bound to a graphitic carbon cartridge in 0.1% formic acid, eluted in 30% acetonitrile buffer, and injected into a Sciex 4000 mass spectrometer. The components of the sample were ionized with electrospray ionization and the positive ions were detected. […] The fragments are quantified and the analyzed by the following method.
Determination of IC50 Values. First, the NMN signal was normalized to the L-Cystathionine signal by dividing the NMN signal by the L-Cystathionine signal for each well. The signal from the background wells were averaged and subtracted from the test plates.

[2] = tested on: A2780 cells; experiment: In-Vitro Cell Proliferation Assay (SRB)
[3] = read-out: Cell Proliferation (IC50), A2780 cells, 72 h, sulforhodamine B
[4] = Homo sapiens, A2780, 72 h, read-out: Cell Proliferation (IC50)
[5] = Homo sapiens, A2780, 72 h, read-out: Cell Proliferation (IC50), A2780 cells, 72 h, sulforhodamine B

Chain of NAMPT (P43490 whole entry): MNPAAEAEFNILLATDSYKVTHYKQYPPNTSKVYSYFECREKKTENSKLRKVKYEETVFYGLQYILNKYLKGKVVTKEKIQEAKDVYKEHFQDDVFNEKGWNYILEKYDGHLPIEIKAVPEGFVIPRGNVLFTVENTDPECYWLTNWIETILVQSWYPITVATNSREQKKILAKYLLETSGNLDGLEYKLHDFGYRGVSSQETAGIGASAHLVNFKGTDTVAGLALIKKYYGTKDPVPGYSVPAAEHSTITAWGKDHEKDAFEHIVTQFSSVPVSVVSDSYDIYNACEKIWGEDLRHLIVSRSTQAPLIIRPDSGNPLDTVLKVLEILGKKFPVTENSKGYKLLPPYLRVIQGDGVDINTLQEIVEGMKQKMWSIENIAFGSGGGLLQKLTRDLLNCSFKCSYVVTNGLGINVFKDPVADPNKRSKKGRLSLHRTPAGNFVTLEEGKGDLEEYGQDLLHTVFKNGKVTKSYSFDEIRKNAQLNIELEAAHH

SMILES	IC50 [1] [nM]	IC50 [2, 3] [nM]	IC50 [2, 4] [nM]	IC50 [2, 5] [nM]
O=C(NCc1ccc([S+]([O-])c2cc(F)cc(F)c2)cn1)N1Cc2ccncc2C1 (single isomer, unassigned; enantiomer 1) [Example 159, N-[[5-(3,5-difluorophenyl)sulfinyl-2-pyridyl]methyl]-1,3-dihydropyrrolo[3,4-c]pyridine-2-carboxamide (enantiomer 1)]	635	2000	–	–
O=C(NCc1ccc([S+]([O-])c2cc(F)cc(F)c2)cn1)N1Cc2ccncc2C1 (single isomer, unassigned; enantiomer 2) [Example 160, N-[[5-(3,5-difluorophenyl)sulfinyl-2-pyridyl]methyl]-1,3-dihydropyrrolo[3,4-c]pyridine-2-carboxamide (enantiomer 2)]	20.1	19.6	–	–
O=C(NCc1ccc(S(=O)(=O)c2cc(F)cc(F)c2)cn1)c1cnc2[nH]ncc2c1 [Example 1, 1H-Pyrazolo[3,4-b]pyridine-5-carboxylic acid [5-(3,5-difluoro-benzenesulfonyl)-pyridin-2-ylmethyl]-amide]	56.3	–	91	–
O=C(NCc1ccc(S(=O)(=O)c2cc(F)cc(F)c2)cn1)c1cnc2nccn2c1 [Example 2, Imidazo[1,2-a]pyrimidine-6-carboxylic acid [5-(3,5-difluoro-benzenesulfonyl)-pyridin-2-ylmethyl]-amide]	6.5	–	52.6	–
O=C(NCc1ccc(S(=O)(=O)c2cc(F)cc(F)c2)cn1)c1ccc2nccn2c1 [Example 4, Imidazo[1,2-a]pyridine-6-carboxylic acid [5-(3,5-difluoro-benzenesulfonyl)-pyridin-2-ylmethyl]-amide]	7.1	–	9.2	–
O=C(NCc1ncc(S(=O)(=O)c2ccccc2)cn1)c1cnc2[nH]ncc2c1 [Example 6, 1H-Pyrazolo[3,4-b]pyridine-5-carboxylic acid (5-benzenesulfonyl-pyrimidin-2-ylmethyl)-amide]	108	–	–	2000
O=C(NCc1ncc(S(=O)(=O)c2ccccc2)cn1)c1cc2cnccc2[nH]1 [Example 7, 1H-Pyrrolo[3,2-c]pyridine-2-carboxylic acid (5-benzenesulfonyl-pyrimidin-2-ylmethyl)-amide]	150	–	131	–
O=C(NCc1ncc(S(=O)(=O)c2ccccc2)cn1)c1ccc2nccn2c1 [Example 8, Imidazo[1,2-a]pyridine-6-carboxylic acid (5-benzenesulfonyl-pyrimidin-2-ylmethyl)-amide]	352	–	–	459
O=C(NCc1ccc(S(=O)(=O)c2cccc(C(F)(F)F)c2)cn1)c1ccc2nccn2c1 [Example 10, Imidazo[1,2-a]pyridine-6-carboxylic acid [5-(3-trifluoromethyl-benzenesulfonyl)-pyridin-2-ylmethyl]-amide]	12.7	–	–	8.3
O=C(NCc1ncc(S(=O)(=O)c2ccccc2)cn1)c1cnc2nccn2c1 [Example 12, Imidazo[1,2-a]pyrimidine-6-carboxylic acid (5-benzenesulfonyl-pyrimidin-2-ylmethyl)-amide]	19.1	–	828	–
O=C(NCc1ccc(S(=O)(=O)c2cccc(OC(F)(F)F)c2)cn1)c1ccc2nccn2c1 [Example 13, Imidazo[1,2-a]pyridine-6-carboxylic acid [5-(3-trifluoromethoxy-benzenesulfonyl)-pyridin-2-ylmethyl]-amide]	8.5	–	13.6	–
O=C(NCc1ccc(S(=O)(=O)c2cccc(C(F)(F)F)c2)cn1)c1cnc2[nH]ncc2c1 [Example 16, 1H-Pyrazolo[3,4-b]pyridine-5-carboxylic acid [5-(3-trifluoromethyl-benzenesulfonyl)-pyridin-2-ylmethyl]-amide]	39.4	–	16.3	–
O=C(NCc1ccc(S(=O)(=O)c2cccc(C(F)(F)F)c2)cn1)c1cc2cnccc2[nH]1 [Example 17, 1H-Pyrrolo[3,2-c]pyridine-2-carboxylic acid [5-(3-trifluoromethyl-benzenesulfonyl)-pyridin-2-ylmethyl]-amide]	19.1	–	9.1	–
O=C(NCc1ccc(S(=O)(=O)c2cccc(C(F)(F)F)c2)cn1)c1cnc2nccn2c1 [Example 18, Imidazo[1,2-a]pyrimidine-6-carboxylic acid (5-(3-trifluoromethyl-benzenesulfonyl)-pyridin-2-ylmethyl]-amide]	4.7	–	11.7	–
O=C(NCc1ccc(S(=O)(=O)c2cccc(OC(F)(F)F)c2)cn1)c1cnc2nccn2c1 [Example 20, Imidazo[1,2-a]pyrimidine-6-carboxylic acid [5-(3-trifluoromethoxy-benzenesulfonyl)-pyridin-2-ylmethyl]-amide]	3.4	–	11.4	–
O=C(NCc1ccc(S(=O)(=O)c2cccc(OC(F)(F)F)c2)cn1)c1cc2ccncc2o1 [Example 23, Furo[2,3-c]pyridine-2-carboxylic acid [5-(3-trifluoromethoxy-benzenesulfonyl)-pyridin-2-ylmethyl)-amide]	6.1	–	10.8	–
O=C(NCc1ccc(S(=O)(=O)C2CCNCC2)cn1)c1cc2ccncc2o1 [Example 26, Furo[2,3-c]pyridine-2-carboxylic acid [5-(piperidine-4-sulfonyl)-pyridin-2-ylmethyl]-amide]	204	–	2000	–
O=C(NCc1ccc(S(=O)(=O)C2CCNCC2)cn1)c1ccc2nccn2c1 [Example 27, Imidazo[1,2-a]pyridine-6-carboxylic acid [5-(piperidine-4-sulfonyl)-pyridin-2-ylmethyl]-amide]	572	–	930	–
O=C(NCc1ccc(S(=O)(=O)c2ccc(N3CCOCC3)cc2)cn1)c1ccc2nccn2c1 [Example 30, Imidazo[1,2-a]pyridine-6-carboxylic acid (5-(4-morpholin-4-yl-benzenesulfonyl)-pyridin-2-ylmethyl]-amide]	7.2	–	–	1.6
O=C(NCc1ccc(S(=O)(=O)c2ccc(N3CCOCC3)cc2)cn1)c1cnc2[nH]ncc2c1 [Example 31, 1H-Pyrazolo[3,4-b]pyridine-5-carboxylic acid [5-(4-morpholin-4-yl-benzenesulfonyl)-pyridin-2-ylmethyl]-amide]	19.3	–	7.3	–
COc1cccc(S(=O)(=O)c2ccc(CNC(=O)c3cc4ccncc4o3)nc2)c1 [Example 32]	6.1	–	9.1	–
COc1cccc(S(=O)(=O)c2ccc(CNC(=O)c3cnc4nccn4c3)nc2)c1 [Example 33, Imidazo[1,2-a]pyrimidine-6-carboxylic acid [5-(3-methoxy-benzenesulfonyl)-pyridin-2-ylmethyl]-amide]	4.6	–	28.6	–
COc1cccc(S(=O)(=O)c2ccc(CNC(=O)c3cnc4[nH]ncc4c3)nc2)c1 [Example 34, 1H-Pyrazolo[3,4-b]pyridine-5-carboxylic acid [5-(3-methoxy-benzenesulfonyl)-pyridin-2-ylmethyl]-amide]	59.9	–	104	–
O=C(NCc1ccc(S(=O)(=O)c2ccc(N3CCOCC3)nc2)cn1)c1ccc2nccn2c1 [Example 35, Imidazo[1,2-a]pyridine-6-carboxylic acid [5-(6-morpholin-4-yl-pyridine-3-sulfonyl)-pyridin-2-ylmethyl]-amide]	8.6	–	2	–
Cn1cc(S(=O)(=O)c2ccc(CNC(=O)c3ccc4nccn4c3)nc2)cn1 [Example 36, Imidazo[1,2-a]pyridine-6-carboxylic acid [5-(1-methyl-1H-pyrazole-4-sulfonyl)-pyridin-2-ylmethyl]-amide]	101	–	472	–
O=C(NCc1ccc(S(=O)(=O)c2ccc(N3CCOCC3)cc2)cn1)c1cc2ccncc2o1 [Example 37, Furo[2,3-c]pyridine-2-carboxylic acid [5-(4-morpholin-4-yl-benzenesulfonyl)-pyridin-2-ylmethyl]-amide]	3.5	–	1	–
O=C(NCc1ccc(S(=O)(=O)c2ccc(N3CCOCC3)cc2)cn1)c1cnc2nccn2c1 [Example 38, Imidazo[1,2-a]pyrimidine-6-carboxylic acid [5-(4-morpholin-4-yl-benzenesulfonyl)-pyridin-2-ylmethyl]-amide]	2.1	–	–	10
O=C(NCc1ccc(S(=O)(=O)c2ccc(N3CCOCC3)cc2)cn1)c1cc2ccncc2s1 [Example 39, Thieno[2,3-c]pyridine-2-carboxylic acid [5-(4-morpholin-4-yl-benzenesulfonyl)-pyridin-2-ylmethyl]-amide]	2.8	–	–	0.8
